The test system of one data set is 3T3-L1 adipocytes. As to the kind of experiment: Intracellular lipid accumulation, Oil Red O staining. The note with it: simvastatin 10 μM (S); % of differentiated model (100%); mean ± SE. Type of data set: cell-based. As to the method:
On the first day, a modified assay proposed by Zhang et al. was carried out for the purpose of 3T3-L1 cells cell culture and differentiation, by initially seeding the 3T3-L1 preadipocyte cells in 6-well plates with a density of 1×10^5 cells per well and then culturing in DMEM with 10% FBS at a temperature of 37°C for 24 h in an atmosphere of 5% carbon dioxide. On the second day, adipocyte differentiation was performed by treating the 3T3-L1 cells with a differentiation medium comprising DMEM with 10% FBS, mixed with 0.5 mM 3-isobutyl-1-methylxanthine (IBMX), 1 μM dexamethasone, and 10 μg/mL insulin. This process took three days, whereupon on day 5 the original medium was removed and a new insulin medium, comprising DMEM with 10% FBS and 10 μg/mL insulin, was used to maintain adipocyte characteristics with a 3-day incubation period. […] Oil Red O staining was then used to evaluate the intracellular lipid accumulation of the mature 3T3-L1 adipocytes. This process required the cells to first be rinsed in PBS and then fixed for 1 h at room temperature with 10% formalin. […] It was then possible to evaluate the accumulation of lipids by dissolving in isopropanol (100%), and to measure the absorbance at 540 nm. The lipid accumulation was expressed as a percentage in comparison to the control.

The test system of the next data set is AMPK-α. The experiment in a line: Western blot AMPK-α expression. To be noted: GRSPDTHSG 0.25-1 mM or simvastatin 10 μM. Type of data set: cell-based. As to the method:
On the first day, a modified assay proposed by Zhang et al. was carried out for the purpose of 3T3-L1 cells cell culture and differentiation, by initially seeding the 3T3-L1 preadipocyte cells in 6-well plates with a density of 1×10^5 cells per well and then culturing in DMEM with 10% FBS at a temperature of 37°C for 24 h in an atmosphere of 5% carbon dioxide. On the second day, adipocyte differentiation was performed by treating the 3T3-L1 cells with a differentiation medium comprising DMEM with 10% FBS, mixed with 0.5 mM 3-isobutyl-1-methylxanthine (IBMX), 1 μM dexamethasone, and 10 μg/mL insulin. This process took three days, whereupon on day 5 the original medium was removed and a new insulin medium, comprising DMEM with 10% FBS and 10 μg/mL insulin, was used to maintain adipocyte characteristics with a 3-day incubation period. […] Once extracted, the proteins of equivalent concentration underwent separation on 12% sodium dodecyl sulfate-polyacrylamide gel electrophoresis (SDS-PAGE) before moving to polyvinylidene fluoride (PVDF) membranes (Millipore, Bedford, MA, USA). […] The membranes were then incubated overnight at a temperature of 4°C with the primary antibodies (PPAR-γ, AMPK-α, SREBP-1C and β-actin) diluted at 1:1000. […] The band intensity could then be measured using ImageJ software (version 1.53; National Institutes of Health, MD, USA). […]
On the technique in general: A western blot detects proteins with antibodies after separation by electrophoresis.

In data set [1] the test system is 3T3-L1 cells. To be noted: cited from earlier work. From the text: Although we believe there have been no previous studies detailing the […] peptide, it can be considered as a suitable novel peptide capable of addressing the problem of obesity. The literature does contain references to peptides which act in a similar manner to affect preadipocytes during their initial proliferation. […] It was noted by Zhang et al. that th ...

Data set [2] deals with T1, porcine pancreatic lipase (Sus scrofa, UniProt P00591).
T1 sequence (P00591 1-450): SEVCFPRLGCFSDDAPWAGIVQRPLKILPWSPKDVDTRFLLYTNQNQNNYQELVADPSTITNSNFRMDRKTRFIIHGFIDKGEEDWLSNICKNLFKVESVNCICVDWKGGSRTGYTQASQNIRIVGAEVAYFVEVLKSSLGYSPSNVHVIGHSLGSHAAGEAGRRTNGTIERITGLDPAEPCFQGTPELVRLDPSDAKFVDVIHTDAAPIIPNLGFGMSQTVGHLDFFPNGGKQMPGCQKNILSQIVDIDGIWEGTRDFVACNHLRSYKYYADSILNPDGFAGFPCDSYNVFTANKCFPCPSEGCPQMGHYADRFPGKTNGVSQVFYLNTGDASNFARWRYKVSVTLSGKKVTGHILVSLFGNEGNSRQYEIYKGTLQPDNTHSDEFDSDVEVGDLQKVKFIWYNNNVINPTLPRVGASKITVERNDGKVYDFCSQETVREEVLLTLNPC
The experiment in a line: Lipase inhibitory activity (LI), pNPP substrate. Type of data set: biochemical. To be noted: synthetic peptide, pH 7.0, 37°C, 30 min. As to the method: (§1) The determination of lipase inhibition was performed using a method with slight modifications as described by Ketprayoon et al.. The p-nitrophenyl palmitate (pNPP) was served as the substrate, with a solution containing 30 mg of pNPP dissolved in 10 mL of isopropanol. This pNPP solution was then emulsified by combining it with 90 mL of 50 mM Tris-HCl at pH 7.0, 20 μL of Triton X-100 and 100 mg of gum arabic. The assay was initiate the assay by incubating the porcine pancreatic lipase (0.5 mg/mL in 50 mM Tris‐HCl buffer, pH 7.0), pNPP solution and DLSH peptides at a temperature of 37°C for 30 min. Absorbance was then measured at 410 nm for p-nitrophenol with Orlistat employed as the positive control. […] LI=AN−AP×100/AN (3) in which AN indicates the absorbance of the negative control in the absence of the peptide, whereas AP indicates the absorbance of activity when the peptide is present.

Data set [3] deals with T1, porcine pancreatic lipase. The experiment in a line: Kinetic study of lipase inhibition (Lineweaver-Burk, Dixon plot). Type of data set: biochemical. To be noted: non-competitive, pNPP, 37°C, pH 7.0, 30 min, mean ± SE (n = 3), read-out: Inhibition constant (Ki). On the procedure: as §1
The inhibitory mechanism of the lipase inhibitor was investigated using the Lineweaver-Burk plot. […] The reaction mixtures were incubated under a temperature of 37°C and pH 7.0 for 30 min, while initial velocity rates were determined at different substrate concentrations (0.1, 0.2, 0.3, 0.4, and 0.5 mM). […] The Michaelis-Menten constant (Km) and maximum velocity (Vmax) for the lipase inhibition were determined by analyzing the intercepts on the x-axis and y-axis, respectively. […]

For data set [4], the system named is 3T3-L1 cells. As to the kind of experiment: MTT cell viability. Type of data set: cell-based. The note with it: 72 h, mean ± SE (n = 3), ns. As to the method: Following incubation, each well received 10 μL of MTT solution (5 mg/mL), before a further 4 h of incubation at a temperature of 37°C. Then 100 μL of DMSO was added to dissolve the MTT-formazan crystals in the viable cells before measuring the absorbance at 540 nm.

For a further data set, the system named is lipase. To be noted: cited from earlier work. On the procedure:
The Lineweaver-Burk plot was used to evaluated the inhibition mode of the […] peptide obtained from DLSH, and the outcome can be observed in Fig 6(A) (S6 Table). The plot of the inhibition activity was created by altering the concentration of the substrate while maintaining the peptide concentration at the same level throughout (0, 0.1, 0.3 and 0.5 mM). […] The peptide accordingly acted as a lipase inhibitor by taking the form o ...

Ends that are not written are not given here.

Consider eight molecules from paper PMC11111035, “Lemon basil seed-derived peptide: Hydrolysis, purification, and its role as a pancreatic lipase inhibitor that reduces adipogenesis by downregulating SREBP-1c and PPAR-γ in 3T3-L1 adipocytes” (PLOS ONE, 2024).

On to `CCC(C)(C)C(=O)O[C@H]1C[C@@H](C)C=C2C=C[C@H](C)[C@H](CC[C@@H]3C[C@@H](O)CC(=O)O3)[C@H]21` [Simvastatin, simvastatin], for which the Lipid accumulation in the data set with 3T3-L1 adipocytes was 51.66 ± 1.81%. Moreover, the “AMPK expression, in words” value in the data set on AMPK-α is on record as “AMPK expression level rose”.
As to “CANPHELPNK [peptide from Spirulina platensis protein, pepsin digestion]”, the Triglyceride accumulation result in the data set on 3T3-L1 cells [1] is “potentially limiting triglyceride accumulation”.
Turning to “DIVDKIEI [peptide derived from extract of boiled tuna]”, in the data set on 3T3-L1 cells [1], the 3T3-L1 preadipocyte differentiation entry is reported as “effective in inhibiting 3T3-L1 preadipocyte differentiation”; the “Triglyceride levels and glucose uptake” value is “lowering both triglyceride levels and the uptake of glucose”.
On to GAGVGY [GAGVGY], for which the “Glucose transport and lipid metabolism” value with 3T3-L1 cells [1] is “enhance the transport of glucose and support the lipid metabolism in 3T3-L1 adipocytes”.
For the molecule GRSPDTHSG, the IC50 in data set [2] was determined as 255 µM. The inhibitory constant (Ki) in data set [3] stood at 610 ± 90 µM. Besides, the Cell viability is 97.02 ± 4.65% in the data set with 3T3-L1 cells [4] (0.25 mM), 92.90 ± 1.60% with 3T3-L1 cells [4] (0.50 mM) and 85.96 ± 2.05% with 3T3-L1 cells [4] (1.00 mM).
In the case of “LLVVYPWTQR [synthetic decapeptide derived from C. pyenoidose]”, the Intracellular lipid accumulation with 3T3-L1 cells [1] (600 μg/mL, reduced) is listed as 27.91%.
Turning to “NPVWKRK [peptide from Spirulina platensis protein, pepsin digestion]”, the Triglyceride accumulation result in the data set with 3T3-L1 cells [1] is reported as “potentially limiting triglyceride accumulation”.
For glutathione, the “Mode of lipase inhibition” value with lipase is recorded as “non-competitive inhibition”.

The IC50 is the concentration that gives 50% inhibition. A low value points to greater potency in that assay. Broadly, the Ki is a measure of affinity in units of concentration, obtained from inhibition or displacement.
